# Laboratory results: patent US20250009743A1, “METHODS OF TREATING CANCERS USING STING AGONISTS” (Dana-Farber Cancer Institute, Inc., priority 2021, published 2025)
# “Also recorded” adds a separate entry of the source.
# How the values were obtained:
# PE tumors [1] = assay: PE (exon19del/T790M EGFR, Trp53 loss) tumor growth in FVB mice; assay type: in vivo, mouse; details: mouse, in vivo
# PE tumors [2] = assay: Flow cytometry of immune cells in PE tumors and tumor-drainage lymph nodes; assay type: in vivo, mouse
# Description: To obtain single-cell suspension from tumor mass, tumors were excised, minced and dissociated in collagenase buffer (DMEM supplemented with 5% FBS, 10 mM HEPES [Gibco), 100 μg/mL penicillin-streptomycin, 20 μg/mL DNase I [StemCell] and 1× collagenase/hyaluronidase [StemCell]) at 37° C. for 45 min. Tumor-draining lymph nodes were isolated from tumor-bearing mice and were mashed through 70 μm strainer using plunger of a syringe to obtain single-cell suspension.
# For FACS staining, tissue cells were first stained with LIVE/DEAD Fixable Aqua Dead Cell Stain (Thermo Fisher) for 30 min on ice, followed by blocking with anti-CD16/32 (BioLegend) for 20 minutes on ice. Afterwards, cells were incubated with antibodies targeting surface biomarkers in FACS buffer for 30 minutes on ice.
# PE tumor cells = assay: CXCL10 and CCL5 expression in PE tumor cells (RT-PCR); assay type: cell-based, mouse; details: FIG. 27C
# Description: (§1) Cultured cells were lysed in 1 mL TRIZOL® reagent supplied with 200 μL chloroform, after which, samples were vortexed vigorously for 15s and incubated at room temperature for 2 to 3 minutes. The samples were then centrifuged at 12000 g for 15 minutes at 4° C., and collected aqueous phase only. […] Relative mRNA levels were calculated using the […]. Mouse Actb and human GAPDH were used as endogenous controls for mouse and human samples, respectively.
# PC9GR4 = assay: CXCL10 and CCL5 expression in PC9GR4 cells (RT-PCR); assay type: cell-based, human; details: FIG. 27C
# Description: as §1
# [3] = tested on: EFGR/ERK signaling pathway
# THP-1 macrophages = assay: Marker expression in MDA-MB-436 tumor cell-educated THP-1 macrophages; assay type: cell-based, human; details: ADU-S100 10 μM, two days; FIG. 7G
# Description: Cells were cultured in a humidified incubator under 5% CO2 at 37° C. MDA-MB-436, HCC1937 and THP-1 human cell lines were obtained from ATCC, tested negative for mycoplasma, and authenticated using short tandem repeat analysis (Promega GenePrint 10 System). MDA-MB-436 and HCC1937 breast cancer cells were cultured in RPMI 1640 medium (Gibco) supplemented with 10% heat-inactivated fetal bovine serum (FBS, Gemini) and 100 μg/mL penicillin-streptomycin (Gibco). THP-1 monocytes were cultured in RPMI 1640 with 10% FBS and 0.055 mM 2-mercaptoethanol (Gibco, #21985023). To differentiate THP-1 monocytes to macrophages, cells were treated with 100 nM PMA (Sigma, #P1585) for 48 h, followed by 24 h recovery with PMA-free medium.
# For flow cytometry analyses of tumor and TDLN samples, single-cell suspensions were obtained as described above (Tissue Digestion). Cells were stained in cold FACS buffer (PBS containing 0.2% BSA and 5 mM EDTA) with LIVE/DEAD Fixable Aqua Dead Cell Stain (Thermo Fisher) for 30 min on ice, followed by blocking with anti-CD16/32 (BioLegend) for 20 min on ice. […] All data were analyzed using FlowJo software. […]
# [4] = tested on: BMDMs generated from FVB/NJ mice; assay: Polarization of mouse BMDMs cultured in PBM / PBM-R conditioned medium; assay type: cell-based; details: BMDMs in 50% PBM-R-CM; ADU-S100 10 μM or MSA-2 5 ug/ml, two days; FIG. 21B
# Description: For ex vivo culture of mouse macrophages, bone marrow cells were isolated from FVB/NJ mice and cultured in DMEM containing 10% FBS, 55 μM 2-Mercaptoethanol and 20 ng/ml M-CSF. BMDMs (bone marrow derived macrophages) were harvested on day 7 and further cultured in 2.0 ml control medium (90% DMEM, 10% FBS, 55 μM 2-Mercaptoethanol and 5 ng/ml M-CSF) described above or the medium containing 50% tumor cell conditioned medium for 72 hrs before analysis. For the tumor cell conditioned medium, about 3×10^5 tumor cells were cultured in 6-well plate for 24 hrs and then treated with DMSO or olaparib. After 24 hrs incubation with DMSO or olaparib, the tumor cells were washed twice with PBS and cultured in DMEM containing 10% FBS for 48 hrs. The tumor cell conditioned medium was collected by centrifugation at 1,500 g for 5 min at 4° C. to remove all the debris and cells. For the cytokine blocking experiment, monoclonal antibodies that specific to each cytokine were added to the tumor cell conditioned medium before it was applied to culture macrophages.
# human BMDMs = assay: Polarization of human BMDMs cultured in CM from ovarian PDXs; assay type: cell-based; details: STAT3 inhibitor-treated PDXs; FIG. 25D
# Description: For ex vivo culture of human macrophages, human BMDMs were generated from bone marrow mononuclear cells (BMMs) (CAT #70001) obtained from […] Technologies. Briefly, BMMs were cultured in DMEM containing 10% FBS, 55 μM 2-Mercaptoethanol (CAT #21985023, Thermo Fisher) and 50 ng/ml M-CSF for 5-7 days with media replacement every 3 days to obtain matured macrophages (BMDMs). […] Flow cytometry analysis was preformed to analyze the phenotypes of macrophages for both mouse and human BMDMs.
structure (smiles),measurement,setting,value
C=CC(=O)Nc1cc(Nc2nccc(-c3cn(C)c4ccccc34)n2)c(OC)cc1N(C)CCN(C)C [osimertinib],PE tumor growth,PE tumors [1],significantly slowed PE tumor growth; also recorded: tumor regression; also recorded: only modest therapeutic effects
same,growth of large PE tumors,PE tumors [1],progressed through osimertinib treatment and presented growth rates comparable to control
same,therapeutic effect under CD8^+ T cell depletion,PE tumors [1],significantly mitigated
same,T cells or IFNg^+/TNFa^+ T cells in large PE tumors,PE tumors [2]; large tumors,did not lead to increase
same,tumor immune microenvironment of large PE tumors,"PE tumors [2]; single-agent treatment, FIG. 30B",did not significantly affect
same,CD8^+ and CD4^+ T cells in tumor,"PE tumors [2]; small tumors, FIG. 27B",induced the recruitment of CD8^+ and CD4^+ T cells
same,IFNg-positive CD8^+ and CD4^+ T cells,"PE tumors [2]; small tumors, FIG. 27B",increase
same,expression of CXCL10 and CCL5,PE tumor cells,significantly elevated
same,expression of CXCL10 and CCL5,PC9GR4,significantly elevated
same,activation of EFGR/ERK signaling pathway (phosphorylation of EGFR and ERK),[3],inhibited
Nc1ncnc2c1ncn2[C@@H]1O[C@@H]2COP(=O)([S-])O[C@@H]3[C@H](O)[C@@H](COP([O-])(=S)O[C@H]2[C@H]1O)O[C@H]3n1cnc2c(N)ncnc21.[Na+].[Na+] (some centres unmarked) [ADU-S100],CD86 expression,THP-1 macrophages,significantly increased
same,CD163 expression,THP-1 macrophages,suppressed
same,M1/M2 ratio,[4],significantly increased
CC(=O)c1cc2c(o1)C(=O)c1ccccc1C2=O [napabucasion],M2-like macrophage polarization induced by CM from DF86 and DF118,human BMDMs,partially diminished
